Earlier results, collected in patent publication US20080103103A1, “Reagents and methods to treat ocular diseases and infection” (priority 2006, published 2008).

Tests used:
adenovirus [1] = system: adenovirus
adenovirus [2] = details: 0.5%
adenovirus [3] = details: 0.2%
adenovirus [4] = details: 3%, ocular application
HSV = HSV early onset
adenovirus [5] = system: adenovirus; remark: listed apart in the source

Structure (SMILES): O=C(O[C@@H]1Cc2c(O)cc(O)cc2O[C@@H]1c1cc(O)c(O)c(O)c1)c1cc(O)c(O)c(O)c1 [EGCG, (2R,3R)-2-(3,4,5-Trihydroxyphenyl)-3,4-dihydro-1(2H)-benzopyran-3,5,7-triol 3-(3,4,5-trihydroxybenzoate)]
- activity against adenovirus in vitro (viral load) (adenovirus [1]; in vitro): greatly reducing the viral load
- concentration effective for in vitro cultures (adenovirus [1]; in vitro cultures, adenovirus): 0.005%

Structure (SMILES): Nc1ccn(C[C@@H](CO)OCP(=O)(O)O)c(=O)n1 [cidofovir]
- result in animal studies (adenovirus [2]): some positive results
- result in clinical trials (adenovirus [3]): failed

Structure (SMILES): Nc1nc(O)c2ncn(COC(CO)CO)c2n1 [gancicolovir]
- activity against adenovirus (adenovirus [4]): very minor activity

Structure (SMILES): Nc1nc2c(ncn2COCCO)c(=O)[nH]1 [Acyclovir]
- effectiveness against HSV (HSV): effective
- effectiveness against adenovirus (adenovirus [5]): not adenovirus

Structure (SMILES): CC(=O)OCC(CCn1cnc2cnc(N)nc21)COC(C)=O [famciclovir]
- effectiveness against HSV (HSV): effective
- effectiveness against adenovirus (adenovirus [5]): not adenovirus
